The results in this text go back to patent US12338203B2 (TAISHO PHARMACEUTICAL CO., LTD., priority 2019, dated 2025).

The target in this test is T1, human LPAR1 (Homo sapiens, UniProt Q92633).
T1 construct: expressed in transfected cells
T1 sequence (Q92633 whole entry): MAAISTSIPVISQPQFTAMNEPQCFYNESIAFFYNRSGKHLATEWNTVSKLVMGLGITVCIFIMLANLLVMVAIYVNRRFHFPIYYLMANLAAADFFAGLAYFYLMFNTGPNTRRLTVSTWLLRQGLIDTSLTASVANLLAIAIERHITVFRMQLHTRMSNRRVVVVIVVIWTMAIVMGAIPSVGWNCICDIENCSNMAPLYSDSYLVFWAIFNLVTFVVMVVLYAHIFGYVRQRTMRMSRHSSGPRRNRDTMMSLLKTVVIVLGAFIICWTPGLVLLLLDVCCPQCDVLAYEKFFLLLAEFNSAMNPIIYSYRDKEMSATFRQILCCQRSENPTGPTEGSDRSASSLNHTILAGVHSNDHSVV
The test is described as follows: Test Example 1: antagonism against response of LPA-induced increase in intracellular Ca2+ concentration in RH7777 cells stably expressing human LPAR1. The test is classed as cell-based. To be noted: RH7777 cells stably expressing human LPAR1; Fluo-4 fluorescence, FDSS6000; read-out: IC50 value (concentration producing 50% antagonism against response of LPA-induced increase in intracellular Ca2+ concentration) (converted). An outline of the steps:
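RH7777 cells stably transfected with human LPAR1 were preincubated with test compound 30 min at 37 °C in HBSS/20 mM HEPES/probenecid/0.05% BSA buffer, pH 7.4, then LPA-stimulated.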
For the molecule `CCOc1cc([C@@H](C)N(CCC(F)(F)Cc2ccccc2)C(=O)NC2(C(=O)O)CCOCC2)c(Cl)c(OCC)c1C(C)O` (stereo partly drawn) [Example 5-68, 4-{[{(1R)-1-[2-Chloro-3,5-Diethoxy-4-(1-Hydroxyethyl)Phenyl]Ethyl}(3,3-Difluoro-4-Phenylbutyl) Carbamoyl]Amino}Oxane-4-Carboxylic Acid], the IC50 is 31 nM.

For `CCOc1cc(C(C)N(CCCCc2ccccc2)C(=O)NC2(C(=O)O)CC(OCC)C2)cc(OCC)c1C1CC1` (centres unmarked) [Example 1-101], the IC50 is 1.44 nM. For the molecule `CCOc1cc([C@@H](C)N(CCCCc2ccccc2)C(=O)NC2(C(=O)O)CC(F)(F)C2)c(Cl)c(OCC)c1C(C)O` (single isomer, unassigned) [Example 5-53], the IC50 is 2.54 nM. Regarding `CCOc1cc(C(C)N(CCCCc2ccccc2)C(=O)NC2(C(=O)O)CC(F)(F)C2)ccc1C(C)=O` (centres unmarked) [Example 5-8], the IC50 is 3.62 nM.

In the case of `CCOc1cc([C@@H](C)N(CCO[C@@H](C)c2ccccc2)C(=O)N[C@H]2C[C@@](C)(C(=O)O)C2)cc(OCC)c1C(C)=O` [Example 4-120], the IC50 was 15.2 nM. With `CCOc1cc(C(C)N(CCO[C@@H](C)c2ccccc2)C(=O)NC2(C(=O)OC)CC(OCC)C2)cc(OCC)c1C(C)=O` (some centres unmarked) [Example 6-4], the IC50 was 344 nM. As to `CCOc1cc(C(C)N(CCOCc2ccccc2)C(=O)NC2(C(=O)O)CC(OCC)C2)c(Cl)c(OCC)c1C(C)=O` (centres unmarked) [Example 5-220], the IC50 is 2.13 nM. For `CCOc1cc(C(C)N(CCCc2cccc(C)c2)C(=O)NC2(C(=O)O)CC(F)(F)C2)cc(OCC)c1C` (centres unmarked) [Example 4-13], the IC50 was 59.8 nM.

Consider `CCOc1cc([C@@H](C)N(CCC2Cc3ccccc3C2)C(=O)NC2(C(=O)O)CC(F)(F)C2)cc(OCC)c1C` [Example 4-21, 1-({[(1R)-1-(3,5-Diethoxy-4-Methylphenyl)Ethyl][2-(2,3-Dihydro-1H-Inden-2-Yl)Ethyl]Carbamoyl}Amino)-3,3-Difluorocyclobutane-1-Carboxylic Acid], for which the IC50 was 2.74 nM. The figure for `CCOc1c(C2CC2)ccc([C@@H](C)N(CCO[C@@H](C)c2ccccc2)C(=O)NC2(C(=O)O)CCC2)c1C` [Example 4-166] is 2.02 nM; for `CCOc1cc(C(C)N(CCCCc2ccccc2)C(=O)NC2(C(=O)O)CC(F)(F)C2)c2ccn(CC)c2c1` (centres unmarked) [Example 5-95] it is 7.22 nM; for `CCOc1cc([C@@H](C)N(CCCC(F)(F)c2ccccc2)C(=O)NC2(C(=O)O)CCOCC2)cc(OCC)c1C(C)O` (some centres unmarked) [Example 4-77] it is 5.87 nM.

In the case of `CCOc1cc(C(C)N(CCO[C@@H](C)c2ccccc2)C(=O)NC2(C(=O)O)CC(OCC)C2)c(Cl)c(OCC)c1C(C)=O` (some centres unmarked) [Example 5-223], the IC50 was 2.08 nM.

In the case of `CCOc1cc(C(C)N(CCCCc2ccccc2)C(=O)NC(CC(=O)O)C(=O)O)cc(OCC)c1C` (centres unmarked) [Example 1-12], the IC50 is 3600 nM. With `CCOc1c(C(C)=O)ccc([C@@H](C)N(CCCC(F)(F)c2ccccc2)C(=O)NC2(C(=O)O)CC(F)(F)C2)c1C` [Example 4-60] the figure was 2.9 nM; with `CCOc1cc(C(C)N(CCO[C@@H](C)c2ccccc2)C(=O)NC2(C(=O)O)CC(OC)C2)c(C)c(OCC)c1C1CC1` (some centres unmarked) [Example 5-203], 1.33 nM; with `CCOc1cc([C@@H](C)N(CCOCc2ccccc2)C(=O)NC2(C(=O)O)CC(F)(F)C2)cc(OCC)c1C(C)O` (some centres unmarked) [Example 4-103], 1.98 nM.

Consider `CCOc1cc(C(C)N(CCOCc2ccccc2)C(=O)NC2(C(=O)O)CC(OCC)C2)c(Cl)c(OCC)c1C1CC1` (centres unmarked) [Example 5-213], for which the IC50 was 0.847 nM.

For `CCOc1cc(C(C)N(CCCCc2ccccc2)C(=O)NC2(C(=O)O)CC(F)(F)C2)cc(OCC)c1C(F)F` (centres unmarked) [Example 1-51], the IC50 was 3.52 nM. For the molecule `CCOc1cc(C(C)N(CCCCc2ccccc2)C(=O)NC(Cc2cccnc2)C(=O)O)cc(OCC)c1C` (centres unmarked) [Example 1-10], the IC50 was 88.5 nM. With `COc1cc(C(C)N(CCOCc2ccccc2)C(=O)NC2(C(=O)O)CCOCC2)c(Cl)c(OC)c1C(C)=O` (centres unmarked) [Example 5-174], the IC50 was 30 nM.

For the molecule `COc1cc(C(C)N(CCCCc2ccccc2)C(=O)NC2(C(=O)O)CC(F)(F)C2)cnc1C#N` (centres unmarked) [Example 5-90], the IC50 is 143 nM. On to `CCOc1cc(C(C)N(CCCCc2ccccc2)C(=O)NC2(C(=O)O)CC(F)(F)C2)cc(OCC)c1Br` (centres unmarked) [Example 1-42], for which the IC50 was 4.02 nM. `CCOc1cc([C@@H](C)N(CCC(F)(F)Cc2ccccc2)C(=O)NC2(C(=O)O)CC2)cc(OCC)c1C(C)=O` [Example 4-79]: the IC50 was 34.6 nM. With `CCOc1cc(C(C)N(CCOCc2ccccc2)C(=O)NC2(C(=O)O)CCOCC2)c(C)c(OCC)c1C1CC1` (centres unmarked) [Example 5-227] the figure was 0.851 nM; with `CCOc1cc(C#N)cc(C(C)N(CCCCc2ccccc2)C(=O)NC2(C(=O)O)CC(F)(F)C2)c1` (centres unmarked) [Example 5-20], 3.92 nM; with `CCOc1c(C2CC2)ccc([C@@H](C)N(CCOC(C)c2ccccc2Cl)C(=O)NC2(C(=O)O)CCC2)c1C` (some centres unmarked) [Example 4-178], 24 nM. Consider `CCOc1cc([C@@H](C)N(CCCCc2ccccc2)C(=O)NC2CCC[C@H]2C(=O)O)cc(OCC)c1C(C)=O` (some centres unmarked) [Example 1-133], for which the IC50 was 1.21 nM.

Turning to `CCCOc1cc(OCC)cc(C(C)N(CCCCc2ccccc2)C(=O)NC2(C(=O)O)CC(F)(F)C2)c1` (centres unmarked) [Example 5-17], the IC50 was 8.86 nM.

With `CCOC(=O)C1(NC(=O)N(CCO[C@@H](C)c2ccccc2)C(C)c2cc(OCC)c(C(C)=O)c(OCC)c2Cl)CC1` (some centres unmarked) [Example 6-8], the IC50 was 2840 nM. `CCNc1cc([C@@H](C)N(CCCCc2ccccc2)C(=O)NC2(C(=O)O)CC(F)(F)C2)cc(O)c1C(C)=O` [Example 5-112]: the IC50 is 15.1 nM. With `CCOc1c(C(C)=O)ccc([C@@H](C)N(CCO[C@@H](C)c2ccccc2)C(=O)NC2(C(=O)O)CC(OC)C2)c1C` (some centres unmarked) [Example 4-130] the figure was 6.66 nM; with `CCOc1cc([C@@H](C)N(CCC(F)(F)Cc2ccccc2)C(=O)NC2(C(=O)O)CC(F)(F)C2)cc(OCC)c1C(C)O` (single isomer, unassigned) [Example 4-86], 2.75 nM; with `CCOc1cc(C(C)N(CCOCc2ccccc2)C(=O)NC2(C(=O)O)CCC2)c(Cl)c(OCC)c1C1CC1` (centres unmarked) [Example 5-190], 0.817 nM. The figure for `CCOc1cc(C(C)N(CCCCCc2ccccc2)C(=O)NC2(C(=O)O)CC(F)(F)C2)cc(OCC)c1C` (centres unmarked) [Example 4-37] is 30.6 nM. Take `CCOc1cc([C@@H](C)N(CCO[C@@H](C)c2ccccc2)C(=O)N[C@]2(C(=O)O)C[C@@H](OCC)C2)c(C)c(OCC)c1C(C)=O` [Example 5-118, Trans-1-[([(1R)-1-(4-Acetyl-3,5-Diethoxy-2-Methylphenyl)Ethyl]{2-[(1S)-1-Phenylethoxy]Ethyl}Carbamoyl)Amino]-3-Ethoxycyclobutane-1-Carboxylic Acid]: the IC50 is 1.86 nM. As for `CCOc1cc([C@@H](C)N(CCCCc2ccccc2)C(=O)NC2(C(=O)O)CC3(CCC3)C2)cc(OCC)c1C` [Example 1-121], the IC50 is 9.23 nM. As to `CCOc1cc([C@@H](C)N(CCC(F)(F)Cc2ccccc2)C(=O)NC2(C(=O)O)CC(F)(F)C2)cc(OCC)c1C1CC1` [Example 4-87], the IC50 is 2.53 nM. As for `CCOc1cc([C@@H](C)N(CCCCc2ccccc2)C(=O)NC2(C(=O)O)CCOCC2)cc(OCC)c1C(C)O` (stereo partly drawn) [Example 1-152, 4-{[{(1R)-1-[3,5-Diethoxy-4-(1-Hydroxyethyl)Phenyl]Ethyl}(4-Phenylbutyl) Carbamoyl]Amino}Oxane-4-Carboxylic Acid], the IC50 is 5.17 nM. Regarding `CCOc1cc([C@@H](C)N(CCCC(F)(F)c2ccccc2)C(=O)NC2(C(=O)O)CC(F)(F)C2)cc(OCC)c1C(C)=O` [Example 4-56], the IC50 is 1.33 nM. `CCC(c1cc(OC)c(C)c(OC)c1)N(CCCCc1ccccc1)C(=O)NC1(C(=O)O)CC(F)(F)C1` (centres unmarked) [Example 3-3]: the IC50 is 30.1 nM. In the case of `CCOc1cc(C(C)N(CCCCc2ccccc2)C(=O)NC2(C(=O)O)CC(F)(F)C2)c(C)cc1C(C)=O` (centres unmarked) [Example 1-81], the IC50 is 0.944 nM. Regarding `CCOc1cc(OCC)cc(C(C)N(CCCCc2ccccc2)C(=O)NC2(C(=O)O)CCCC2)c1` (centres unmarked) [Example 5-10], the IC50 was 35.4 nM. In the case of `CCOc1c(C(C)O)ccc([C@@H](C)N(CCCCc2ccccc2)C(=O)NC2(C(=O)O)CC(F)(F)C2)c1C` (single isomer, unassigned) [Example 1-79], the IC50 was 7.86 nM.

On to `CCOc1cc(C(C)N(CCCCc2ccccc2)C(=O)NC2(c3nn[nH]n3)CC2)cc(OCC)c1C(C)=O` (centres unmarked) [Example 10-3], for which the IC50 was 1.9 nM. For the molecule `CCOc1c(C(C)=O)ccc([C@@H](C)N(CCO[C@@H](C)c2ccccc2)C(=O)NC2(C(=O)O)CC(OC)C2)c1C` (some centres unmarked) [Example 4-131], the IC50 was 10.3 nM.

As to `CCOc1cc([C@@H](C)N(CCCC(F)(F)c2ccccc2)C(=O)NC2(C(=O)O)CCOCC2)cc(OCC)c1C(C)=O` [Example 4-73], the IC50 was 3.68 nM. With `CCOc1cc([C@@H](C)N(CCCC(F)(F)c2ccccc2)C(=O)NC2(C(=O)O)CC2)cc(OCC)c1C(C)=O` [Example 4-45] the figure was 1.59 nM.

As for `CCOc1cc([C@@H](C)N(CCCc2ccccc2)C(=O)NC2(C(=O)O)CC(F)(F)C2)cc(OCC)c1C` [Example 4-36], the IC50 is 5.7 nM. With `CCOc1cc(C(CO)N(CCCCc2ccccc2)C(=O)NC2(C(=O)O)Cc3ccccc3C2)cc(OCC)c1C` (centres unmarked) [Example 3-8], the IC50 was 33.5 nM. Regarding `COc1cc(C(C)N(CCOCc2ccccc2)C(=O)NC2(C(=O)O)CC(F)(F)C2)cc(OC)c1C(C)=O` (centres unmarked) [Example 5-141], the IC50 is 3.49 nM. As to `CCOc1cc([C@@H](C)N(CCCCc2ccccc2)C(=O)NC2(C(=O)O)CCOCC2)cc(OCC)c1C` [Example 1-154], the IC50 was 11.3 nM. In the case of `CCOc1cc([C@@H](C)N(CCO[C@@H](C)c2ccccc2)C(=O)N[C@]2(C(=O)O)C[C@H](OC)C2)c(C)c(OCC)c1C(C)=O` [Example 5-72], the IC50 was 3.62 nM.
